{"source": "paper PMC6749586", "about": "“Design, Synthesis, and Anticancer Effect Studies of Iridium(III) Polypyridyl Complexes against SGC-7901 Cells” (Molecules, 2019)", "key": {"[1]": {"tested_on": "SGC-7901 cells", "assay": "Transwell cell invasion assay", "format": "cell-based, human", "conditions": "4.0 µM 1, 15.0 µM 2, 15.0 µM 3, 24 h, Matrigel Transwell", "experimental": "To analyze the efficacy of the iridium(III) complexes in preventing migration and offsetting the invasion potential of SGC-7901 cells, 24-well Transwell chambers coated with matrigel were used. The cells were trypsinized and re-suspended in serum-free RPMI-1640 at a density of 1.8 × 10^5 cells/mL. Then, 100 μL of the cell suspension and different concentrations of the complexes were placed in the top chambers of the Transwell plates, and 500 μL of RPMI-1640 containing 20% FBS was added to the lower chambers. After co-incubation for 24 h, non-invading cells in the top chambers of the Transwell plates were scraped away by cotton swabs, and invaded cells were fixed with paraformaldehyde for 15 min and stained with crystal violet solution (0.1%) for 20 min. The cells that invaded the underside of the Transwell plates were photographed with a microscope."}, "[2]": {"tested_on": "SGC-7901 cells", "assay": "MTT cytotoxicity assay, SGC-7901", "format": "cell-based, human", "conditions": "48 h; for IC50: read-out: IC50 toward SGC-7901", "source_text": "(§1) The lung carcinoma cell line A549, the cervical cancer cell line HeLa, the esophageal cancer cell line Eca-109, and the human hepatocellular carcinoma cell line BEL-7402 were purchased from the cell bank of the Cell Institute of Sinica Academia Shanghai (Shanghai, China). The gastric adenocarcinoma cell line SGC-7901, the hepatocellular carcinoma cell line HepG2, and the mouse embryonic fibroblast cell line NIH 3T3 were obtained from the Experimental Animal Center of Sun Yat-Sen University (Guangzhou, China). The BEL-7402 and SGC-7901 cell lines were cultured in Roswell Park Memorial Institute Medium (RPMI-1640); and A549, Eca-109, HepG2, and NIH 3T3 cells were grown in Dulbecco’s Modified Eagle’s Medium (DMEM), including 10% fetal bovine serum (FBS), 100 units mL^−1 penicillin/streptomycin mixture, and 2.0 g/L of NaHCO3. Cell passage experiments were performed with trypsin every 2 days to maintain exponential growth. All cells were cultured until they reached logarithmic growth phase, unless specifically noted.\n(§2) Cell cytotoxicity following treatment with the iridium(III) complexes was detected by MTT assay. The cells were seeded into 96-well micro-assay culture plates (1 × 10^4 cells per well) and grown overnight in a 5% CO2 incubator at 37 °C. Then, the cell lines were treated with gradient concentrations of the complexes 1–3. After treatment for 48 h, MTT solution (5 mg mL^−1, […]) dissolved in phosphate buffer was added to each well and the cells were further cultured for 4 h. Upon completion of incubation, the solvent was removed and 100 µL/well of buffer containing dimethylformamide (50%) and sodium dodecyl sulfate (20%) was added to dissolve the produced formazan. The absorbance of each well was measured with a microplate reader at a wavelength of 490 nm. The IC50 values were determined from the plots of viability versus concentration used to treat the cells. Three independent experiments were performed to obtain the mean values."}, "[3]": {"assay": "Oil-water partition coefficient, flask-shake method", "format": "physicochemical", "conditions": "octanol/water, pH 7.4, flask-shake, 25 °C", "experimental": "The pH of the cells cultured in vitro was approximately 7.4. With this in mind, we evaluated the lipophilicity of the iridium complexes by detecting the partition coefficient at pH = 7.4, using the flask-shake method. Each drug was dissolved in pre-saturated octanol at final concentrations of 0.02 and 0.03 mM. Aliquots of 5 mL of drug solution and distilled water (previously saturated with octanol) were transferred to a 25 mL flask and shaked at 25 °C for 24 h. After the shaking was completed, the solution was allowed to stand for 48 h to fully equilibrate the aqueous phase and the organic phase. The concentration of the complexes in the aqueous phase was then measured by UV-vis spectroscopy at the maximum ultraviolet absorption (262 nm for 1, 249 nm for 2, and 251 nm for 3). The evaluation of each sample was repeated three times."}, "[4]": {"tested_on": "HepG2 cells", "assay": "MTT cytotoxicity assay, HepG2", "format": "cell-based, human", "conditions": "48 h, read-out: IC50 toward HepG2", "source_text": "as §1, §2"}, "[5]": {"tested_on": "Eca-109 cells", "assay": "MTT cytotoxicity assay, Eca-109", "format": "cell-based, human", "conditions": "48 h, read-out: IC50 toward Eca-109", "source_text": "The lung carcinoma cell line A549, the cervical cancer cell line HeLa, the esophageal cancer cell line Eca-109, and the human hepatocellular carcinoma cell line BEL-7402 were purchased from the cell bank of the Cell Institute of Sinica Academia Shanghai (Shanghai, China). The gastric adenocarcinoma cell line SGC-7901, the hepatocellular carcinoma cell line HepG2, and the mouse embryonic fibroblast cell line NIH 3T3 were obtained from the Experimental Animal Center of Sun Yat-Sen University (Guangzhou, China). […] Cell passage experiments were performed with trypsin every 2 days to maintain exponential growth. All cells were cultured until they reached logarithmic growth phase, unless specifically noted. Cell cytotoxicity following treatment with the iridium(III) complexes was detected by MTT assay. The cells were seeded into 96-well micro-assay culture plates (1 × 10^4 cells per well) and grown overnight in a 5% CO2 incubator at 37 °C. Then, the cell lines were treated with gradient concentrations of the complexes 1–3. After treatment for 48 h, MTT solution (5 mg mL^−1, […]) dissolved in phosphate buffer was added to each well and the cells were further cultured for 4 h. […] The absorbance of each well was measured with a microplate reader at a wavelength of 490 nm. The IC50 values were determined from the plots of viability versus concentration used to treat the cells. Three independent experiments were performed to obtain the mean values."}, "[6]": {"tested_on": "A549 cells", "assay": "MTT cytotoxicity assay, A549", "format": "cell-based, human", "conditions": "48 h, read-out: IC50 toward A549", "source_text": "as §1, §2"}, "[7]": {"tested_on": "SGC-7901 cells", "assay": "Cell cycle assay (PI, flow cytometry)", "format": "cell-based, human", "conditions": "for Percentage in the cells, G0/G1 phase / Phase of cell cycle arrest / Percentage in the cells, G2/M phase / Percentage in the cells, S phase: 4.0 µM 1, 15.0 µM 2, 15.0 µM 3, 24 h; for Percentage in the cells, G2/M phase: control 14.92%; for Percentage in the cells, S phase: control 37.46%", "experimental": "Then, each sample was washed twice with cold PBS, re-suspended in 190 μL of PBS buffer containing 4 μL of PI (1 mg/mL), 4 μL of RnaseA (10 mg/mL) and 0.2 μL of Tritonx-100, and stained in the dark for 30 min. Finally, the cells were analyzed by flow cytometry"}, "[8]": {"tested_on": "SGC-7901 cells", "assay": "ATP quantification assay (luciferin-luciferase)", "format": "cell-based, human", "conditions": "4.0 µM 1, 15.0 µM 2, 15.0 µM 3, 24 h; control 951.46 nM", "experimental": "Approximately 2.4 × 10^6 cells were taken, evenly planted in a 6-well plate, and incubated overnight in an incubator at 37 °C. On the next day, the cells were exposed to different concentrations of compounds for 24 h in triplicate. Following exposure, 200 μL of cell lysis buffer was added to each well of the cell plate and lysed on ice. To measure ATP, 20 μL of the lysed cell suspension was added to 100 μL of a luciferin–luciferase reagent. Light emission was measured by a luminometer. ATP levels were determined using a standard curve."}, "[9]": {"tested_on": "BEL-7402 cells", "assay": "MTT cytotoxicity assay, BEL-7402", "format": "cell-based, human", "conditions": "48 h, read-out: IC50 toward BEL-7402", "source_text": "as §1, §2"}}}
{"smiles": "F[P-](F)(F)(F)(F)F.O=[N+]([O-])c1cc2ccc[n+]3c2c2c1ccc[n+]2[Ir-5]312([c]3ccccc3-c3cccc[n+]31)[c]1ccccc1-c1cccc[n+]12", "note": "[Complex 1, [Ir(Hppy)2(NP)]PF6]", "values": [{"measurement": "Inhibitory percentage of cell invasion", "setting": "[1]", "value": 51.09, "unit": "%"}, {"measurement": "IC50 toward SGC-7901", "setting": "[2]", "value": "the same cytotoxicity as cisplatin"}, {"measurement": "IC50", "setting": "[2]", "value": "3.6 ± 0.1", "unit": "µM"}, {"measurement": "logPo/w", "setting": "[3]", "value": 1.01}, {"measurement": "IC50", "setting": "[4]", "value": "30.9 ± 0.7", "unit": "µM"}, {"measurement": "IC50", "setting": "[5]", "value": "20.3 ± 0.9", "unit": "µM"}, {"measurement": "IC50", "setting": "[6]", "value": "14.3 ± 2.4", "unit": "µM"}, {"measurement": "Percentage in the cells, G0/G1 phase", "setting": "[7]", "value": 50.28, "unit": "%"}, {"measurement": "Phase of cell cycle arrest", "setting": "[7]", "value": "inhibited cell proliferation at the S phase"}, {"measurement": "Percentage in the cells, G2/M phase", "setting": "[7]", "value": 6.70, "unit": "%"}, {"measurement": "Percentage in the cells, S phase", "setting": "[7]", "value": 43.02, "unit": "%"}, {"measurement": "Intracellular ATP amount", "setting": "[8]", "value": 913.91, "unit": "nM"}, {"measurement": "IC50", "setting": "[9]", "value": "23 ± 0.8", "unit": "µM"}]}
{"smiles": "F[P-](F)(F)(F)(F)F.Nc1c([N+](=O)[O-])c2cccnc2c2ncccc12.[Ir+3].[c-]1ccccc1-c1ccccn1.[c-]1ccccc1-c1ccccn1", "note": "[Complex 2, [Ir(Hppy)2(NAP)]PF6]", "values": [{"measurement": "Inhibitory percentage of cell invasion", "setting": "[1]", "value": 46.01, "unit": "%"}, {"measurement": "IC50", "setting": "[2]", "value": "14.1 ± 0.5", "unit": "µM"}, {"measurement": "logPo/w", "setting": "[3]", "value": 1.33}, {"measurement": "IC50", "setting": "[4]", "value": "99 ± 14.7", "unit": "µM"}, {"measurement": "IC50", "setting": "[5]", "value": "72.6 ± 5.3", "unit": "µM"}, {"measurement": "IC50", "setting": "[6]", "value": "80.6 ± 1.4", "unit": "µM"}, {"measurement": "Percentage in the cells, G0/G1 phase", "setting": "[7]", "value": 56.65, "unit": "%"}, {"measurement": "Phase of cell cycle arrest", "setting": "[7]", "value": "cell cycle arrest at G0/G1"}, {"measurement": "Percentage in the cells, G2/M phase", "setting": "[7]", "value": 5.49, "unit": "%"}, {"measurement": "Percentage in the cells, S phase", "setting": "[7]", "value": 37.86, "unit": "%"}, {"measurement": "Increase in the cells at the G0/G1 phase versus control", "setting": "[7]; 15.0 µM, 24 h", "value": 9.03, "unit": "%"}, {"measurement": "Intracellular ATP amount", "setting": "[8]", "value": 880.48, "unit": "nM"}, {"measurement": "IC50", "setting": "[9]", "value": "68.7 ± 1.5", "unit": "µM"}]}
{"smiles": "F[P-](F)(F)(F)(F)F.Nc1c(N)c2cccnc2c2ncccc12.[Ir+3].[c-]1ccccc1-c1ccccn1.[c-]1ccccc1-c1ccccn1", "note": "[Complex 3, [Ir(Hppy)2(DAP)]PF6]", "values": [{"measurement": "Inhibitory percentage of cell invasion", "setting": "[1]", "value": 48.90, "unit": "%"}, {"measurement": "IC50", "setting": "[2]", "value": "11.1 ± 1.3", "unit": "µM"}, {"measurement": "logPo/w", "setting": "[3]", "value": 0.78}, {"measurement": "IC50", "setting": "[4]", "value": "95 ± 9.1", "unit": "µM"}, {"measurement": "IC50", "setting": "[5]", "value": "97.1 ± 0.2", "unit": "µM"}, {"measurement": "IC50", "setting": "[6]", "value": "> 100", "unit": "µM"}, {"measurement": "Percentage in the cells, G0/G1 phase", "setting": "[7]", "value": 44.79, "unit": "%"}, {"measurement": "Phase of cell cycle arrest", "setting": "[7]", "value": "inhibited cell proliferation at the S phase"}, {"measurement": "Percentage in the cells, G2/M phase", "setting": "[7]", "value": 10.50, "unit": "%"}, {"measurement": "Percentage in the cells, S phase", "setting": "[7]", "value": 44.71, "unit": "%"}, {"measurement": "Intracellular ATP amount", "setting": "[8]", "value": 945.02, "unit": "nM"}, {"measurement": "IC50", "setting": "[9]", "value": "68.8 ± 4.6", "unit": "µM"}]}
